Molecules are shown by their SMILES. Entries after “also recorded” stand apart in the source; their conditions may differ. Bounds are passed on as bounds.

One data set has as its target T1, PPAR gamma-LBD (Homo sapiens, UniProt P37231).
T1 sequence (P37231 238-503 limits assumed): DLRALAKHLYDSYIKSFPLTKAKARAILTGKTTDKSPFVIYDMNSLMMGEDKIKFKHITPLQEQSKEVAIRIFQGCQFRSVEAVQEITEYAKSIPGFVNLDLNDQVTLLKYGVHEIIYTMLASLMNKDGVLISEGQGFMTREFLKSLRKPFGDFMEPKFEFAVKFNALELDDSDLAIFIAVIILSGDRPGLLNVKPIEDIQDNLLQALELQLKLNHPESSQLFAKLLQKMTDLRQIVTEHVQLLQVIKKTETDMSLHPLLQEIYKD
Nature of the data set: PPAR assay, PPARγ. The data set is classed as binding. As to conditions: sample final concentration 100 μM; positive control rosiglitazone; FIGS. 7 and 8.

The target of the next data set is T2, PPAR alpha-LBD (Homo sapiens, UniProt Q07869).
T2 sequence (Q07869 239-466 limits assumed): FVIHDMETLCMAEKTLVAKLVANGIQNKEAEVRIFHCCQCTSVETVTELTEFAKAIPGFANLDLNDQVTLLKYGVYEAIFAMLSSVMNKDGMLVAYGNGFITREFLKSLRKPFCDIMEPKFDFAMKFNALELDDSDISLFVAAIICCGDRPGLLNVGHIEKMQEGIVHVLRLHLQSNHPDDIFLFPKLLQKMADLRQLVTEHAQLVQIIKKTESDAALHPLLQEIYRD
Nature of the data set: PPAR assay, PPARα. The conditions noted are these: for PPARα activation (competitive activation rate), compared with fenofibrate: sample final concentration 100 μM, positive control fenofibrate, FIGS. 5 and 6; for simultaneous activation of PPARα and PPARγ: summary of the PPARα and PPARγ assays, sample 100 μM.

As for `O=C(O)[C@@H]1CSC(c2ccc(O)cc2)N1` (mixture of isomers) [Compound 1, (2R/S,4R)-2-(4-hydroxyphenyl)thiazolidine-4-carboxylic acid], the melting point fell in the range of 161.8 to 164.4 °C. Still for that read-out and setting: to `CCOc1cc(C2N[C@H](C(=O)O)CS2)ccc1O` (mixture of isomers) [Compound 5, (2R/S,4R)-2-(3-ethoxy-4-hydroxyphenyl)thiazolidine-4-carboxylic acid] belongs 174.3 to 175.9 °C. On the same count and under the same terms, the same measure for `COc1ccc(C2N[C@H](C(=O)O)CS2)cc1OC` (mixture of isomers) [Compound 8, (2R/S,4R)-2-(3,4-dimethoxyphenyl)thiazolidine-4-carboxylic acid]: 173.6 to 175.4 °C.

As for `COc1cc(C2N[C@H](C(=O)O)CS2)cc(OC)c1OC` (mixture of isomers) [Compound 11, (2R/S,4R)-2-(3,4,5-trimethoxyphenyl)thiazolidine-4-carboxylic acid], the melting point was in the range of 197 to 199.7 °C. In turn, `COc1cc(C2N[C@H](C(=O)O)CS2)cc(OC)c1O` (mixture of isomers) [Compound 12, (2R/S,4R)-2-(4-hydroxy-3,5-dimethoxyphenyl)thiazolidine-4-carboxylic acid] registered a melting point of 139.6 to 141 °C. In the case of `COc1cc(-c2nc3ccccc3s2)ccc1O` [Compound 16, 4-(benzo[d]thiazol-2-yl)-2-methoxyphenol], the “PPARγ activation (competitive activation rate), compared with rosiglitazone” value (shortened to “PPARγ activation … compared with rosiglitazone”) on PPAR gamma-LBD is reported as “very excellent PPARγ activation agent compared to rosiglitazone”. Besides, at PPAR alpha-LBD, the “PPARα activation (competitive activation rate), compared with fenofibrate” value (from here on “PPARα activation … compared with fenofibrate”) was “very excellent PPARα activation agent compared to fenofibrate”; the “simultaneous activation of PPARα and PPARγ” value (shortened to “simultaneous activation”) was “simultaneously activates PPARα and PPARγ”. Regarding `CCOc1cc(-c2nc3ccccc3s2)ccc1O` [Compound 17, 4-(benzo[d]thiazol-2-yl)-2-ethoxyphenol], the “PPARγ activation … compared with rosiglitazone” value on PPAR gamma-LBD is “very excellent PPARγ activation agent compared to rosiglitazone”. On PPAR alpha-LBD, the “PPARα activation … compared with fenofibrate” value was “very excellent PPARα activation agent compared to fenofibrate”; the “simultaneous activation” value was “simultaneously activates PPARα and PPARγ”. `Oc1cc(O)cc(-c2nc3ccccc3s2)c1` [Compound 21, 5-(benzo[d]thiazol-2-yl)benzene-1,3-diol] registered a melting point of 274.5 to 276.5 °C.

`COc1ccc(-c2nc3ccccc3s2)c(OC)c1` [Compound 22, 2-(2,4-dimethoxyphenyl)benzo[d]thiazole] came in with a melting point of 137.4 to 138.9 °C.

On to `Oc1ccc(-c2nc3ccccc3s2)cc1Br` [Compound 26, 4-(benzo[d]thiazol-2-yl)-2-bromophenol], for which the “PPARγ activation … compared with rosiglitazone” value at PPAR gamma-LBD is reported as “the most excellent PPARγ activation agent; also recorded: very excellent PPARγ activation agent compared to rosiglitazone”. At PPAR alpha-LBD, the “PPARα activation … compared with fenofibrate” value is listed as “the most excellent PPARα activation agent; also recorded: very excellent PPARα activation agent compared to fenofibrate”; the “simultaneous activation” value was “simultaneously activates PPARα and PPARγ”. With `COc1ccc(-c2nc3cc(C(F)(F)F)ccc3s2)cc1O` [Compound 33, 2-methoxy-5-(5-(trifluoromethyl)benzo[d]thiazol-2-yl)phenol], the melting point was in the range of 142.1 to 144.5 °C. The same measure, in the same setting: to `COc1ccc(-c2nc3cc(C(F)(F)F)ccc3s2)cc1OC` [Compound 35, 2-(3,4-dimethoxyphenyl)-5-(trifluoromethyl)benzo[d]thiazole] belongs 120.4 to 121.6 °C; to `Oc1cc(O)cc(-c2nc3cc(C(F)(F)F)ccc3s2)c1` [Compound 36, 5-(5-(trifluoromethyl)benzo[d]thiazol-2-yl)benzene-1,3-diol], 256.7 to 260.6 °C; to `COc1ccc(-c2nc3cc(C(F)(F)F)ccc3s2)c(OC)c1` [Compound 37, 2-(2,4-dimethoxyphenyl)-5-(trifluoromethyl)benzo[d]thiazole], 140.4 to 141.6 °C.

Regarding `Oc1ccccc1-c1nc2cc(C(F)(F)F)ccc2s1` [Compound 38, 2-(5-(trifluoromethyl)benzo[d]thiazol-2-yl)phenol], the melting point fell in the range of 175 to 176.5 °C. Same read-out and setting: to `COc1cc(-c2nc3cc(C(F)(F)F)ccc3s2)cc(OC)c1OC` [Compound 39, 5-(trifluoromethyl)-2-(3,4,5-trimethoxyphenyl)benzo[d]thiazole] belongs 132.5 to 134 °C. Consider `Oc1ccc(-c2nc3ccccc3[nH]2)cc1` [Compound 43, 4-(1H-benzo[d]imidazol-2-yl)phenol], for which, at PPAR gamma-LBD, the “PPARγ activation … compared with rosiglitazone” value is reported as “very excellent PPARγ activation agent compared to rosiglitazone”. At PPAR alpha-LBD, the “PPARα activation … compared with fenofibrate” value is reported as “very excellent PPARα activation agent compared to fenofibrate”; the “simultaneous activation” value is “simultaneously activates PPARα and PPARγ”. `COc1cc(-c2nc3ccccc3[nH]2)cc(OC)c1OC` [Compound 54, 2-(3,4,5-trimethoxyphenyl)-1H-benzo[d]imidazole] returned a melting point of 257 to 257.7 °C. As to `Oc1ccc(-c2nc3ccccc3[nH]2)cc1Br` [Compound 56, 4-(1H-benzo[d]imidazol-2-yl)-2-bromophenol], the “PPARγ activation … compared with rosiglitazone” value at PPAR gamma-LBD is on record as “very excellent PPARγ activation agent compared to rosiglitazone”. `O=C(O)c1ccc2[nH]c(-c3ccc(O)cc3)nc2c1` [Compound 57, 2-(4-hydroxyphenyl)-1H-benzo[d]imidazole-5-carboxylic acid] came in with a melting point of more than 300 °C. Still for that read-out and setting: to `COc1cc(-c2nc3cc(C(=O)O)ccc3[nH]2)ccc1O` [Compound 60, 2-(4-hydroxy-3-methoxyphenyl)-1H-benzo[d]imidazole-5-carboxylic acid] belongs more than 300 °C; to `CCOc1cc(-c2nc3cc(C(=O)O)ccc3[nH]2)ccc1O` [Compound 61, 2-(3-ethoxy-4-hydroxyphenyl)-1H-benzo[d]imidazole-5-carboxylic acid], more than 300 °C.

`COc1ccc(-c2nc3cc(C(=O)O)ccc3[nH]2)cc1O` [Compound 62, 2-(3-hydroxy-4-methoxyphenyl)-1H-benzo[d]imidazole-5-carboxylic acid] displayed a melting point of 246.6 to 247.7 °C. `COc1cc(-c2nc3cc(C(=O)O)ccc3[nH]2)cc(OC)c1O` [Compound 68, 2-(4-hydroxy-3,5-dimethoxyphenyl)-1H-benzo[d]imidazole-5-carboxylic acid] registered a melting point of 280 to 281.4 °C. Same read-out and setting: the same measure for `Oc1ccc(-c2nc3cc(Cl)ccc3s2)c(O)c1` [Compound 84, 4-(5-chlorobenzo[d]thiazol-2-yl)benzene-1,3-diol]: 277.9 to 280.1 °C. On the same count and under the same terms, to `COc1ccc(-c2nc3cc(Cl)ccc3s2)cc1O` [Compound 87, 5-(5-chlorobenzo[d]thiazol-2-yl)-2-methoxyphenol] belongs 158.2 to 158.6 °C; to `COc1ccc(-c2nc3cc(Cl)ccc3s2)cc1OC` [Compound 89, 5-chloro-2-(3,4-dimethoxyphenyl)benzo[d]thiazole], 165.2 to 167.1 °C. On the same count and under the same terms, the same measure for `Oc1cc(O)cc(-c2nc3cc(Cl)ccc3s2)c1` [Compound 90, 5-(5-chlorobenzo[d]thiazol-2-yl)benzene-1,3-diol]: 129.6 to 130.6 °C. The compound `COc1ccc(-c2nc3cc(Cl)ccc3s2)c(OC)c1` [Compound 91, 5-chloro-2-(2,4-dimethoxyphenyl)benzo[d]thiazole] had a melting point of 138.6 to 140.3 °C. On the same count and under the same terms, to `Oc1ccccc1-c1nc2cc(Cl)ccc2s1` [Compound 92, 2-(5-chlorobenzo[d]thiazol-2-yl)phenol] belongs 194.2 to 195.7 °C; to `COc1cc(-c2nc3cc(Cl)ccc3s2)cc(OC)c1OC` [Compound 93, 5-chloro-2-(3,4,5-trimethoxyphenyl)benzo[d]thiazole], 159.4 to 160 °C; to `c1ccc(COc2ccc(-c3nc4ccccc4s3)cc2)cc1` [Compound 107, 2-(4-(benzyloxy)phenyl)benzo[d]thiazole], 166.1 to 167.2 °C. On the same count and under the same terms, to `FC(F)(F)c1ccc2sc(-c3ccc(OCc4ccccc4)cc3)nc2c1` [Compound 108, 2-(4-(benzyloxy)phenyl)-5-(trifluoromethyl)benzo[d]thiazole] belongs 194.3 to 195.1 °C; to `Clc1ccc2sc(-c3ccc(OCc4ccccc4)cc3)nc2c1` [Compound 109, 2-(4-(benzyloxy)phenyl)-5-chlorobenzo[d]thiazole], 142.7 to 143.3 °C. The same measure, in the same setting: to `c1ccc(COc2cccc(-c3nc4ccccc4s3)c2)cc1` [Compound 110, 2-(3-(benzyloxy)phenyl)benzo[d]thiazole] belongs 121.5 to 122.1 °C; to `FC(F)(F)c1ccc2sc(-c3cccc(OCc4ccccc4)c3)nc2c1` [Compound 111, 2-(3-(Benzyloxy)phenyl)-5-(trifluoromethyl)benzo[d]thiazole], 93.8 to 95.1 °C.

Consider `c1ccc(COc2ccc(-c3nc4ccccc4[nH]3)cc2)cc1` [Compound 114, 2-(4-(benzyloxy)phenyl)-1H-benzo[d]imidazole], for which the “PPARα activation … compared with fenofibrate” value at PPAR alpha-LBD is recorded as “very excellent PPARα activation agent compared to fenofibrate”.

The values above are taken from patent US8889881B2, “Compound having skin-whitening, anti-oxidizing and PPAR activities and medical use therefor” (Pusan National University Industry —University Cooperation …, priority 2011, dated 2014).
